Experimental data reported in US11612606B2, “8-aminoisoquinoline compounds and uses thereof” (priority 2018, dated 2023).
pKi: −log10 of the molar value.

What follows are molecules tested against HPK full length, T165E S171E (Homo sapiens (Human), UniProt Q92918, S171E/T165E) (assay: HPK1-FL HTRF enzymatic assay ("HTRF")). Settings: ATP 1 mM, read-out: HPK1 Ki.
Assay type: biochemical
Method in brief: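 Full-length HPK1 (T165E/S171E) was preincubated 30 min with compound, then reacted 60 min with biotin-SLP-76 and 1 mM ATP. Phospho-SLP-76 was detected by HTRF (Eu-anti-pSLP76 antibody, SA-XL665) after a further 60 min.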

Sequence of HPK full length, T165E S171E (Q92918 whole entry T165E/S171E, looked up): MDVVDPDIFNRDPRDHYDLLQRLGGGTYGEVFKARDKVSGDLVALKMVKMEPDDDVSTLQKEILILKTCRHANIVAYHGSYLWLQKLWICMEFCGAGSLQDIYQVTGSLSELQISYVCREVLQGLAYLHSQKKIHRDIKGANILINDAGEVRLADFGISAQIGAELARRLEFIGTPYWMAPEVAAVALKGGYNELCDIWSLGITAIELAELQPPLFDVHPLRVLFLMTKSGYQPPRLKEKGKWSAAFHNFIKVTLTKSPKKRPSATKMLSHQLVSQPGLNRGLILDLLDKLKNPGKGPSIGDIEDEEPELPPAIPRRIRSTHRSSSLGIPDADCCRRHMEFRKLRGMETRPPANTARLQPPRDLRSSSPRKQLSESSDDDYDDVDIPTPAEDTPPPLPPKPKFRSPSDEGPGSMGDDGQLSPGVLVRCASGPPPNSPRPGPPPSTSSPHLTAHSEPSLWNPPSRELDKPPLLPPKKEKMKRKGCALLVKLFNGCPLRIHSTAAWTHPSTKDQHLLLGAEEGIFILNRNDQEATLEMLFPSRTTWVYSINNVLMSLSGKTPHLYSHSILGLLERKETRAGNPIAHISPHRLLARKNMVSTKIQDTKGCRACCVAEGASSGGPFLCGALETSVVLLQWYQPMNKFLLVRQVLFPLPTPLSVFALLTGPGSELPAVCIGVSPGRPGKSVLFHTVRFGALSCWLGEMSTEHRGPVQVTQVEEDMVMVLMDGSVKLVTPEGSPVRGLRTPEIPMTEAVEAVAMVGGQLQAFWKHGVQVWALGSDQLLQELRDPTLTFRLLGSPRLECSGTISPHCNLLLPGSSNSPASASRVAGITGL

SMILES	pKi
Cc1c(-c2cc3cc(NC(=O)O[C@@H]4CCOC4)ncc3c(N)c2F)cnc2c1C(C#N)CCO2 (stereo partly drawn) [Compound 562a, (R)-Tetrahydrofuran-3-yl (8-amino-6-(4-cyano-5-methyl-3,4-dihydro-2H-pyrano[2,3-b]pyridin-6-yl)-7-fluoroisoquinolin-3-yl)carbamate]	10.17
Cc1c(-c2cc3cc(NC(=O)O[C@@H]4CCN([C@H]5CCOC5)C[C@@H]4F)ncc3c(N)c2F)cnc2c1NCCO2 [Compound 569a, (3S,4R)-3-Fluoro-1-((S)-tetrahydrofuran-3-yl)piperidin-4-yl (8-amino-7-fluoro-6-(8-methyl-2,3-dihydro-1H-pyrido[2,3-b][1,4]oxazin-7-yl)isoquinolin-3-yl)carbamate]	9.56
Cc1c(-c2cc3cc(NC(=O)O[C@@H]4CCN([C@@H]5CCOC5)C[C@@H]4F)ncc3c(N)c2F)cnc2c1NCCO2 [Compound 569b, (3S,4R)-3-fluoro-1-((R)-tetrahydrofuran-3-yl)piperidin-4-yl (8-amino-7-fluoro-6-(8-methyl-2,3-dihydro-1H-pyrido[2,3-b][1,4]oxazin-7-yl)isoquinolin-3-yl)carbamate]	9.60
Cc1c(-c2cc3cc(NC(=O)O[C@H]4CCN([C@H]5CCOC5)C[C@H]4F)ncc3c(N)c2F)cnc2c1NCCO2 [Compound 569c, (3R,4S)-3-fluoro-1-((S)-tetrahydrofuran-3-yl)piperidin-4-yl (8-amino-7-fluoro-6-(8-methyl-2,3-dihydro-1H-pyrido[2,3-b][1,4]oxazin-7-yl)isoquinolin-3-yl)carbamate]	10.54
Cc1c(-c2cc3cc(NC(=O)O[C@H]4C[C@H](CO)C4)ncc3c(N)c2F)cnc2c1NCCO2 [Compound 571a, (1r,3r)-3-(Hydroxymethyl)cyclobutyl (8-amino-7-fluoro-6-(8-methyl-2,3-dihydro-1H-pyrido[2,3-b][1,4]oxazin-7-yl)isoquinolin-3-yl)carbamate]	10.85
Cc1c(-c2cc3cc(NC(=O)O[C@H]4C[C@@H](CO)C4)ncc3c(N)c2F)cnc2c1NCCO2 [Compound 571b, (1s,3s)-3-(Hydroxymethyl)cyclobutyl (8-amino-7-fluoro-6-(8-methyl-2,3-dihydro-1H-pyrido[2,3-b][1,4]oxazin-7-yl)isoquinolin-3-yl)carbamate]	> 10.89
Cc1c(-c2cc3cc(NC(=O)O[C@H]4C[C@@H](S(C)(=O)=O)C4)ncc3c(N)c2F)cnc2c1NCCO2 [Compound 572a, (1s,3s)-3-(Methylsulfonyl)cyclobutyl (8-amino-7-fluoro-6-(8-methyl-2,3-dihydro-1H-pyrido[2,3-b][1,4]oxazin-7-yl)isoquinolin-3-yl)carbamate]	> 10.89
Cc1c(-c2cc3cc(NC(=O)O[C@H]4C[C@@H](C(C)(C)O)C4)ncc3c(N)c2F)cnc2c1NCCO2 [Compound 574b, (1s,3s)-3-(2-hydroxypropan-2-yl)cyclobutyl (8-amino-7-fluoro-6-(8-methyl-2,3-dihydro-1H-pyrido[2,3-b][1,4]oxazin-7-yl)isoquinolin-3-yl)carbamate]	> 10.89
Cc1c(-c2cc3cc(NC(=O)OC4C5COCC4CN(C4COC4)C5)ncc3c(N)c2F)cnc2c1NCCO2 [Compound 575a, (1R,5S,9s)-7-(Oxetan-3-yl)-3-oxa-7-azabicyclo[3.3.1]nonan-9-yl (8-amino-7-fluoro-6-(8-methyl-2,3-dihydro-1H-pyrido[2,3-b][1,4]oxazin-7-yl)isoquinolin-3-yl)carbamate]	> 10.89
CO[C@H]1C[C@H](OC(=O)Nc2cc3cc(-c4cnc5c(c4C)NCCO5)c(F)c(N)c3cn2)C1 [Compound 576a, (1r, 3r)-3-Methoxycyclobutyl (8-amino-7-fluoro-6-(8-methyl-2,3-dihydro-1H-pyrido[2,3-b][1,4]oxazin-7-yl)isoquinolin-3-yl)carbamate]	> 10.89
Cc1c(-c2cc3cc(NC(=O)O[C@H]4C[C@@H](C(F)F)C4)ncc3c(N)c2F)cnc2c1NCCO2 [Compound 577a, (1s,3s)-3-(difluoromethyl)cyclobutyl (8-amino-7-fluoro-6-(8-methyl-2,3-dihydro-1H-pyrido[2,3-b][1,4]oxazin-7-yl)isoquinolin-3-yl)carbamate]	10.82
Cc1c(-c2cc3cc(NC(=O)O[C@H]4C[C@H](C(F)F)C4)ncc3c(N)c2F)cnc2c1NCCO2 [Compound 577b, (1r,3r)-3-(difluoromethyl)cyclobutyl (8-amino-7-fluoro-6-(8-methyl-2,3-dihydro-1H-pyrido[2,3-b][1,4]oxazin-7-yl)isoquinolin-3-yl)carbamate]	> 10.89
Cc1c(-c2cc3cc(NC(=O)OC4CCS(=O)(=O)CC4)ncc3c(N)c2F)cnc2c1NCCC2 [Compound 579, 1,1-Dioxidotetrahydro-2H-thiopyran-4-yl (8-amino-7-fluoro-6-(4-methyl-5,6,7,8-tetrahydro-1,5-naphthyridin-3-yl)isoquinolin-3-yl)carbamate]	9.07
Cc1c(-c2cc3cc(NC(=O)OC4CC5(CCNCC5)C4)ncc3c(N)c2F)cnc2c1NCCO2 [Compound 580, 7-Azaspiro[3.5]nonan-2-yl (8-amino-7-fluoro-6-(8-methyl-2,3-dihydro-1H-pyrido[2,3-b][1,4]oxazin-7-yl)isoquinolin-3-yl)carbamate]	> 10.89
Cc1c(-c2cc3cc(NC(=O)SC4CCOCC4)ncc3c(N)c2F)cnc2c1NCCO2 [Compound 601, S-Tetrahydropyran-4-yl N-[8-amino-7-fluoro-6-(8-methyl-2,3-dihydro-1H-pyrido[2,3-b][1,4]oxazin-7-yl)-3-isoquinolyl]carbamothioate]	> 10.89
Cc1c(-c2cc3cc(NC(=O)NC4CC4)ncc3c(N)c2F)cnc2c1NCCO2 [Compound 702, 1-(8-Amino-7-fluoro-6-(8-methyl-2,3-dihydro-1H-pyrido[2,3-b][1,4]oxazin-7-yl)isoquinolin-3-yl)-3-cyclopropylurea]	> 10.89
CNC(=O)Nc1cc2cc(-c3cnc4c(c3C)NCCO4)c(F)c(N)c2cn1 [Compound 704, 1-(8-Amino-7-fluoro-6-(8-methyl-2,3-dihydro-1H-pyrido[2,3-b][1,4]oxazin-7-yl)isoquinolin-3-yl)-3-methylurea]	> 10.89
CNC(=O)Nc1cc2cc(-c3cnc4c(c3C)NCCC4)c(F)c(N)c2cn1 [Compound 705, 1-[8-Amino-7-fluoro-6-(4-methyl-5,6,7,8-tetrahydro-1,5-naphthyridin-3-yl)-3-isoquinolyl]-3-methyl-urea]	9.82
Cc1c(-c2cc3cc(NC(=O)NC4CCCC4)ncc3c(N)c2F)cnc2c1NCCO2 [Compound 706, 1-(8-Amino-7-fluoro-6-(8-methyl-2,3-dihydro-1H-pyrido[2,3-b][1,4]oxazin-7-yl)isoquinolin-3-yl)-3-cyclopentylurea]	> 10.89
Cc1c(-c2cc3cc(NC(=O)NC4CCC4)ncc3c(N)c2F)cnc2c1NCCO2 [Compound 707, 1-(8-Amino-7-fluoro-6-(8-methyl-2,3-dihydro-1H-pyrido[2,3-b][1,4]oxazin-7-yl)isoquinolin-3-yl)-3-cyclobutylurea]	> 10.89
Cc1c(-c2cc3cc(NC(=O)NC4CC5(C4)CN(CC(F)(F)F)C5)ncc3c(N)c2F)cnc2c1NCCO2 [Compound 708, 1-(8-Amino-7-fluoro-6-(8-methyl-2,3-dihydro-1H-pyrido[2,3-b][1,4]oxazin-7-yl)isoquinolin-3-yl)-3-(2-(2,2,2-trifluoroethyl)-2-azaspiro[3.3]heptan-6-yl)urea]	> 10.89
CC(=O)N1CC2(CC(NC(=O)Nc3cc4cc(-c5cnc6c(c5C)NCCO6)c(F)c(N)c4cn3)C2)C1 [Compound 709, 1-(2-Acetyl-2-azaspiro[3.3]heptan-6-yl)-3-(8-amino-7-fluoro-6-(8-methyl-2,3-dihydro-1H-pyrido[2,3-b][1,4]oxazin-7-yl)isoquinolin-3-yl)urea]	> 10.89
Cc1c(-c2cc3cc(NC(=O)N[C@H]4[C@@H]5COC[C@@H]54)ncc3c(N)c2F)cnc2c1NCCO2 [Compound 713a, 1-(8-Amino-7-fluoro-6-(8-methyl-2,3-dihydro-1H-pyrido[2,3-b][1,4]oxazin-7-yl)isoquinolin-3-yl)-3-((1R,5S,6r)-3-oxabicyclo[3.1.0]hexan-6-yl)urea]	> 10.89
Cc1c(-c2cc3cc(NC(=O)NC4CC(F)(F)C4)ncc3c(N)c2F)cnc2c1NCCO2 [Compound 714, 1-(8-Amino-7-fluoro-6-(8-methyl-2,3-dihydro-1H-pyrido[2,3-b][1,4]oxazin-7-yl)isoquinolin-3-yl)-3-(3,3-difluorocyclobutyl)urea]	> 10.89
Cc1c(-c2cc3cc(NC(=O)N[C@@H]4CCOC4)ncc3c(N)c2F)cnc2c1NCCC2 [Compound 719a, (R)-1-(8-Amino-7-fluoro-6-(4-methyl-5,6,7,8-tetrahydro-1,5-naphthyridin-3-yl)isoquinolin-3-yl)-3-(tetrahydrofuran-3-yl)urea]	10.80
CCNC(=O)Nc1cc2cc(-c3cnc4c(c3C)NCCO4)c(F)c(N)c2cn1 [Compound 720, 1-(8-Amino-7-fluoro-6-(8-methyl-2,3-dihydro-1H-pyrido[2,3-b][1,4]oxazin-7-yl)isoquinolin-3-yl)-3-ethylurea]	> 10.89

Same assay, conditions: HPK1 Ki, ATP 1 mM

SMILES	pKi
Cc1c(-c2cc3cc(NC(=O)O[C@@H]4CO[C@H]5COC[C@H]54)ncc3c(N)c2F)cnc2c1NCCO2 [Compound 563a, (3S,3aR,6aR)-Hexahydrofuro[3,4-b]furan-3-yl (8-amino-7-fluoro-6-(8-methyl-2,3-dihydro-1H-pyrido[2,3-b][1,4]oxazin-7-yl)isoquinolin-3-yl)carbamate]	9.66
Cc1c(-c2cc3cc(NC(=O)O[C@H]4CCN([C@@H]5CCOC5)C[C@H]4F)ncc3c(N)c2F)cnc2c1NCCO2 [Compound 569d, (3R,4S)-3-fluoro-1-((R)-tetrahydrofuran-3-yl)piperidin-4-yl (8-amino-7-fluoro-6-(8-methyl-2,3-dihydro-1H-pyrido[2,3-b][1,4]oxazin-7-yl)isoquinolin-3-yl)carbamate]	10.51
